Consider 30 compounds from US10377753B2, “Substituted 4-azaindoles and their use as GluN2B receptor modulators” (Janssen Pharmaceutica NV, priority 2015, dated 2019).

Counter-ions that a name gives are not always drawn.

For this assay, the target named is cloned human NR1/NR2B ion channels (Homo sapiens (Human), UniProt Q05586+Q13224). Description: HNR2BC: effects of test articles on cloned human NR1/NR2B ion channels expressed in mammalian cells (FLIPR calcium flux). The class given is cell-based. The following applies: Table 5. In a few lines: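 In a stable Tet-On-induced cell line expressing human GluN1/GluN2B, Calcium 5-loaded cells were preincubated 5 min with compound, then stimulated 5 min with glutamate at ~EC80 plus 10 μM glycine, in pH 7.4 HEPES buffer. FLIPR calcium fluorescence was normalized to control wells.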
cloned human NR1/NR2B ion channels, sequence (Q13224 27-1484, other chains not shown): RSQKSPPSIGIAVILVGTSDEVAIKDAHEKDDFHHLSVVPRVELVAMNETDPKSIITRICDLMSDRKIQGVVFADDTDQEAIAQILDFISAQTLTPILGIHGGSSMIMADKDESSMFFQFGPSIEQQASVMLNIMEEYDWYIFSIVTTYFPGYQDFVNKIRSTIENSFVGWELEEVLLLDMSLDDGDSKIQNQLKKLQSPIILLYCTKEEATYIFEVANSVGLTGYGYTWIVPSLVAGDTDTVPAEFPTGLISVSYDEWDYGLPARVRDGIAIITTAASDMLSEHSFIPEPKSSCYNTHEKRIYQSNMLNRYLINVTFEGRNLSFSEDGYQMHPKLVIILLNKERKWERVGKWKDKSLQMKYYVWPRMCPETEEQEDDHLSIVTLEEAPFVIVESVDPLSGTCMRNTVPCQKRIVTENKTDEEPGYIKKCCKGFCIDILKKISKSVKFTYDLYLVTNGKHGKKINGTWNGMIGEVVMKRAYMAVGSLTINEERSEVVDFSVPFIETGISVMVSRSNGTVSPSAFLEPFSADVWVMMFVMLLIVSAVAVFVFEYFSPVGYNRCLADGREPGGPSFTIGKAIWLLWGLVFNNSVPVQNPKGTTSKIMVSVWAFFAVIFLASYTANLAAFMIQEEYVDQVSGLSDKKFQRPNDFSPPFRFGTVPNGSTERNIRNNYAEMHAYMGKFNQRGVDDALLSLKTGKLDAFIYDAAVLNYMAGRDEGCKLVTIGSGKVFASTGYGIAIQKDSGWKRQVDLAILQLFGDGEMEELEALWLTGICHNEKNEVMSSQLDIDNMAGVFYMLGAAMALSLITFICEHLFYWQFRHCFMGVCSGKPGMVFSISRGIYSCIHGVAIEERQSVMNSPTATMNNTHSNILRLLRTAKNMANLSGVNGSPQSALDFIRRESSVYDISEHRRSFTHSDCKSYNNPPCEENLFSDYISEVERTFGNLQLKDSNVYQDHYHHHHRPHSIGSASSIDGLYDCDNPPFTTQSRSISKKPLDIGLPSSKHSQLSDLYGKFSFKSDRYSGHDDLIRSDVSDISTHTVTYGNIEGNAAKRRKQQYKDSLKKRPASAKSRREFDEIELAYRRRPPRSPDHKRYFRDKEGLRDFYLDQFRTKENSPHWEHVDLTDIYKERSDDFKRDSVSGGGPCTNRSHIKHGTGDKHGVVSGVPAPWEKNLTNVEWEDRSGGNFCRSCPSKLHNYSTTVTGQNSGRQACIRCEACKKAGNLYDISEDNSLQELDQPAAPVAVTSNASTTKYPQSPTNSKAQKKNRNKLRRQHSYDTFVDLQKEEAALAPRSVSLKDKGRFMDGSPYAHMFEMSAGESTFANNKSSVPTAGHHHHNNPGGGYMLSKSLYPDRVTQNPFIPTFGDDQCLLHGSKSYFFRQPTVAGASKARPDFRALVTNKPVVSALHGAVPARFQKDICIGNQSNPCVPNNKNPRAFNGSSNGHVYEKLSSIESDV
A general note: Calcium flux is commonly read through the fluorescence of an indicator in the cells.

[1] abbreviates: cloned human NR1/NR2B ion channels.

Take `Cc1cccc(-c2cnc3c(Cl)cn(CC(=O)N4CCCC4)c3c2)c1` [Example 12, 2-[3-Chloro-6-(m-tolyl)pyrrolo[3,2-b]pyridin-1-yl]-1-pyrrolidin-1-yl-ethanone]: the half-inhibitory concentration (IC50) (usually the midpoint of a concentration-inhibition curve) (cloned human NR1/NR2B) is 39.8 nM.

For `CC(C)CNC(=O)Cn1ccc2ncc(-c3ccc(F)cc3)cc21` [Example 234, 2-[6-(4-Fluorophenyl)pyrrolo[3,2-b]pyridin-1-yl]-N-isobutyl-acetamide], where the note is “cloned human NR1/NR2B”, the IC50 is 2510 nM.

As to `Cc1cccc(-c2cnc3ccn(CC(=O)N(C)C)c3c2)c1F` [Example 432, 2-[6-(2-Fluoro-3-methyl-phenyl)pyrrolo[3,2-b]pyridin-1-yl]-N,N-dimethyl-acetamide], under setting [1], the half-inhibitory concentration (IC50) was 794 nM.

With `CCC(=O)Cn1cc(F)c2ncc(-c3cc(C)cs3)cc21` [Example 339, 1-[3-Fluoro-6-(4-methyl-2-thienyl)pyrrolo[3,2-b]pyridin-1-yl]butan-2-one], the half-inhibitory concentration (IC50) (cloned human NR1/NR2B) is 12.6 nM.

`O=C(Cn1ccc2ncc(-c3ccc(F)c(F)c3)cc21)NC1CC1` [Example 100, N-Cyclopropyl-2-[6-(3,4-difluorophenyl)pyrrolo[3,2-b]pyridin-1-yl]acetamide]: the IC50 (cloned human NR1/NR2B) is 1000 nM.

On to `CN(C(=O)Cn1ccc2ncc(-c3ccc(F)cc3)cc21)C1CC1` [Example 205, N-Cyclopropyl-2-[6-(4-fluorophenyl)pyrrolo[3,2-b]pyridin-1-yl]-N-methyl-acetamide], for which, where the note is “cloned human NR1/NR2B”, the half-maximal inhibitory concentration (IC50) was 50.1 nM.

In the case of `CC(C)(C)C(=O)Cn1ccc2ncc(-c3cc(F)cc(F)c3)cc21` [Example 142, 1-[6-(3,5-Difluorophenyl)pyrrolo[3,2-b]pyridin-1-yl]-3,3-dimethyl-butan-2-one], the half-inhibitory concentration (IC50) (cloned human NR1/NR2B) was 501 nM.

On to `CN(C)C(=O)Cn1cc(F)c2ncc(-c3ccc(Cl)s3)cc21` [Example 97, 2-[6-(5-Chloro-2-thienyl)-3-fluoro-pyrrolo[3,2-b]pyridin-1-yl]-N,N-dimethyl-acetamide], for which the half-inhibitory concentration (IC50) (cloned human NR1/NR2B) was 63.1 nM.

As for `Cc1cc2ncc(-c3ccccc3)cc2n1CC(=O)N1CCCC1` [Example 42, 2-(2-Methyl-6-phenyl-pyrrolo[3,2-b]pyridin-1-yl)-1-pyrrolidin-1-yl-ethanone], the half-maximal inhibitory concentration (IC50) (cloned human NR1/NR2B) was 2510 nM.

Consider `Cc1cccc(-c2cnc3c(Br)cn(CC(=O)NC4CC4)c3c2)c1` [Example 21, 2-[3-Bromo-6-(m-tolyl)pyrrolo[3,2-b]pyridin-1-yl]-N-cyclopropyl-acetamide], for which, where the note is “cloned human NR1/NR2B”, the IC50 is 39.8 nM.

Regarding `O=C(Cn1ccc2ncc(-c3cccc(F)c3)cc21)C1CCC1` [Example 292, 1-Cyclobutyl-2-[6-(3-fluorophenyl)pyrrolo[3,2-b]pyridin-1-yl]ethanone], the IC50 (cloned human NR1/NR2B) was 1260 nM.

As to `Cc1cccc(-c2cnc3c(Cl)cn(CC(=O)N4CCOCC4)c3c2)c1` [Example 13, 2-[3-Chloro-6-(m-tolyl)pyrrolo[3,2-b]pyridin-1-yl]-1-morpholino-ethanone], the IC50 (cloned human NR1/NR2B) was 50.1 nM.

Turning to `Cc1cc(-c2cnc3ccn(Cc4ncccn4)c3c2)ccc1F` [Example 183, 6-(4-Fluoro-3-methyl-phenyl)-1-(pyrimidin-2-ylmethyl)pyrrolo[3,2-b]pyridine trifluoroacetate salt], for the setting “cloned human NR1/NR2B”, the half-maximal inhibitory concentration (IC50) was 31.6 nM.

With `CC1CN(C(=O)Cn2ccc3ncc(-c4ccc(F)cc4)cc32)C1` [Example 214, 2-[6-(4-Fluorophenyl)pyrrolo[3,2-b]pyridin-1-yl]-1-(3-methylazetidin-1-yl)ethanone], the half-inhibitory concentration (IC50) (cloned human NR1/NR2B) is 100 nM.

Regarding `O=C(Cn1cc(Br)c2ncc(-c3ccccc3)cc21)N1CCC1` [Example 11, 1-(Azetidin-1-yl)-2-(3-bromo-6-phenyl-pyrrolo[3,2-b]pyridin-1-yl)ethanone], for the setting “cloned human NR1/NR2B”, the IC50 is 25.1 nM.

Turning to `O=C(Cn1cc(Cl)c2ncc(-c3ccc(F)c(F)c3)cc21)N1CC(F)C1` [Example 30, 2-[3-Chloro-6-(3,4-difluorophenyl)pyrrolo[3,2-b]pyridin-1-yl]-1-(3-fluoroazetidin-1-yl)ethanone], the IC50 (cloned human NR1/NR2B) is 20 nM.

`Cc1cc(Cn2ccc3ncc(-c4ccc(F)cc4C)cc32)no1` [Example 59, 3-[[6-(4-Fluoro-2-methyl-phenyl)pyrrolo[3,2-b]pyridin-1-yl]methyl]-5-methyl-isoxazole]: under “cloned human NR1/NR2B”, the IC50 was 39.8 nM.

In the case of `O=C(Cn1ccc2ncc(-c3cncs3)cc21)N1CCC1` [Example 405, 1-(Azetidin-1-yl)-2-(6-thiazol-5-ylpyrrolo[3,2-b]pyridin-1-yl)ethanone], the IC50 under setting [1] is 10000 nM.

For the compound `O=C(Cn1ccc2ncc(-c3ccc(F)cc3)cc21)N1CC(F)C1` [Example 204, 1-(3-Fluoroazetidin-1-yl)-2-[6-(4-fluorophenyl)pyrrolo[3,2-b]pyridin-1-yl]ethanone], for the setting “cloned human NR1/NR2B”, the concentration for half-maximal inhibition (IC50) was 1580 nM.

For `Cc1c(F)ccc(-c2cnc3ccn(CC(=O)C(C)C)c3c2)c1C` [Example 223, 1-[6-(4-Fluoro-2,3-dimethyl-phenyl)pyrrolo[3,2-b]pyridin-1-yl]-3-methyl-butan-2-one], the IC50 (cloned human NR1/NR2B) is 79.4 nM.

Take `Cc1cn(CC(=O)N(C)C)c2cc(-c3cccc(C(F)(F)F)c3)cnc12` [Example 553, N,N-Dimethyl-2-[3-methyl-6-[3-(trifluoromethyl)phenyl]pyrrolo[3,2-b]pyridin-1-yl]acetamide]: under setting [1], the half-maximal inhibitory concentration (IC50) was 79.4 nM.

On to `CCc1cccc(-c2cnc3c(Cl)cn(CC(=O)N(C)C)c3c2)c1` [Example 151, 2-[3-Chloro-6-(3-ethylphenyl)pyrrolo[3,2-b]pyridin-1-yl]-N,N-dimethyl-acetamide], for which the IC50 (cloned human NR1/NR2B) was 79.4 nM.

Regarding `Cc1cc(-c2cnc3ccn(Cc4cnn(C)c4)c3c2)ccc1F` [Example 236, 6-(4-Fluoro-3-methyl-phenyl)-1-[(1-methylpyrazol-4-yl)methyl]pyrrolo[3,2-b]pyridine], the half-inhibitory concentration (IC50) (cloned human NR1/NR2B) is 200 nM.

Turning to `Cc1cc(-c2cnc3c(F)cn(CC(=O)N4CCCC4)c3c2)ccc1F` [Example 313, 2-[3-Fluoro-6-(4-fluoro-3-methyl-phenyl)pyrrolo[3,2-b]pyridin-1-yl]-1-pyrrolidin-1-yl-ethanone], the 50% inhibitory concentration (IC50) (cloned human NR1/NR2B) is 20 nM.

As to `CN(C)C(=O)Cn1cc(F)c2ncc(-c3ccccc3F)cc21` [Example 493, 2-[3-Fluoro-6-(2-fluorophenyl)pyrrolo[3,2-b]pyridin-1-yl]-N,N-dimethyl-acetamide], the IC50 under setting [1] is 25.1 nM.

As to `Cc1csc(-c2cnc3c(C)cn(CC(=O)N4CC(F)C4)c3c2)c1` [Example 575, 1-(3-Fluoroazetidin-1-yl)-2-[3-methyl-6-(4-methyl-2-thienyl)pyrrolo[3,2-b]pyridin-1-yl]ethanone], under setting [1], the half-inhibitory concentration (IC50) is 79.4 nM.

As for `O=C(Cn1ccc2ncc(-c3ccc(F)cc3)cc21)N1CCOCC1` [Example 88, 2-[6-(4-Fluorophenyl)pyrrolo[3,2-b]pyridin-1-yl]-1-morpholino-ethanone], under “cloned human NR1/NR2B”, the IC50 is 251 nM.

For the compound `Cc1ccccc1-c1cnc2ccn(CC(=O)NC3CC3)c2c1` [Example 160, N-Cyclopropyl-2-[6-(o-tolyl)pyrrolo[3,2-b]pyridin-1-yl]acetamide], the IC50 (cloned human NR1/NR2B) was 200 nM.

On to `Cc1cc(-c2cnc3ccn(CCn4cccn4)c3c2)ccc1F` [Example 181, 6-(4-Fluoro-3-methyl-phenyl)-1-(2-pyrazol-1-ylethyl)pyrrolo[3,2-b]pyridine trifluoroacetate salt], for which the IC50 (cloned human NR1/NR2B) was 794 nM.

`O=C(Cn1ccc2ncc(-c3ccc(F)c(F)c3)cc21)N1CCOCC1` [Example 107, 2-[6-(3,4-Difluorophenyl)pyrrolo[3,2-b]pyridin-1-yl]-1-morpholino-ethanone]: the IC50 (cloned human NR1/NR2B) was 158 nM.
